Measurements: publication PMC11997881, “Comprehensive Characterization of Bruton’s Tyrosine Kinase Inhibitor Specificity, Potency, and Biological Effects: Insights into Covalent and Noncovalent Mechanistic Signatures” (ACS Pharmacology & Translational Science, 2025)

Assays:
JNK2 (MAPK9) = JNK2 (MAPK9) (Homo sapiens, UniProt P45984); assay: scanMAX binding POC, JNK2; conditions: 1 μM
ERBB3 = ERBB3 (Homo sapiens, UniProt P21860); assay: scanMAX binding POC, ERBB3; conditions: 1 μM
[1] = target: T1, JAK3 (JH1 catalytic domain) (Homo sapiens, UniProt P52333); assay: scanMAX binding POC, JAK3; conditions: 1 μM
T1 construct: The JAK3 POC is for its JH1 catalytic domain

TXK = target: T2, TXK (Homo sapiens, UniProt P42681); assay: scanMAX binding POC, TXK; conditions: 1 μM
T2 sequence (P42681 1-527): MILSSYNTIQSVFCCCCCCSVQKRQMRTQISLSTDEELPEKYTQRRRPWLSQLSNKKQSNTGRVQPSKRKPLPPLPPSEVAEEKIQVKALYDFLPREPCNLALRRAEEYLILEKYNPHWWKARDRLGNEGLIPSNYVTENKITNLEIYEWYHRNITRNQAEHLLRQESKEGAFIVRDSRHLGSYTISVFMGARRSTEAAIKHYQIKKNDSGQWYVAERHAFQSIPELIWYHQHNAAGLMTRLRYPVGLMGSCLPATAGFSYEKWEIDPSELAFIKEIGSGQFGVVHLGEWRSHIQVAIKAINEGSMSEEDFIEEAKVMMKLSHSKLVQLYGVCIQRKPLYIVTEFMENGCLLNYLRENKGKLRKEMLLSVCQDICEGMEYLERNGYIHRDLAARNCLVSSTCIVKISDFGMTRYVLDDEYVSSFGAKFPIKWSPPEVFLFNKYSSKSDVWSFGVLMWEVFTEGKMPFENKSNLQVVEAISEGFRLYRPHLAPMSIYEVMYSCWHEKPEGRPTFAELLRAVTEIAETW
Text: (§1) Comprehensive Characterization of Bruton’s Tyrosine Kinase Inhibitor Specificity, Potency, and
(§2) Biological Effects: Insights into Covalent and Non-Covalent Mechanistic Signatures
(§3) Antonia C. Darragh1, Andrew M. Hanna1, Justin H. Lipner2, Alastair J. King2, Nicole B. Servant1, Mirza Jahic1*
(§4) *To whom correspondence should be addressed: Mirza Jahic, e-mail address: Mirza.Jahic@discovery.eurofinsus.com
(§5) Supporting Table S1. Comparison of BTK inhibitor specificity to TEC family members. TEC family members are
(§6) Burton’s tyrosine kinase (BTK), tyrosine kinase expressed in hepatocellular carcinoma (TEC), bone marrow-
(§7) expressed kinase (BMX/ETK), and T cell-expressed kinase (TXK/RLK), and interleukin-2-inducible T cell kinase
(§8) A zero POC signifies that the compound

ERBB2 = ERBB2 (Homo sapiens, UniProt P04626); assay: scanMAX binding POC, ERBB2; conditions: 1 μM
Chain of ERBB2 (P04626 23-1255): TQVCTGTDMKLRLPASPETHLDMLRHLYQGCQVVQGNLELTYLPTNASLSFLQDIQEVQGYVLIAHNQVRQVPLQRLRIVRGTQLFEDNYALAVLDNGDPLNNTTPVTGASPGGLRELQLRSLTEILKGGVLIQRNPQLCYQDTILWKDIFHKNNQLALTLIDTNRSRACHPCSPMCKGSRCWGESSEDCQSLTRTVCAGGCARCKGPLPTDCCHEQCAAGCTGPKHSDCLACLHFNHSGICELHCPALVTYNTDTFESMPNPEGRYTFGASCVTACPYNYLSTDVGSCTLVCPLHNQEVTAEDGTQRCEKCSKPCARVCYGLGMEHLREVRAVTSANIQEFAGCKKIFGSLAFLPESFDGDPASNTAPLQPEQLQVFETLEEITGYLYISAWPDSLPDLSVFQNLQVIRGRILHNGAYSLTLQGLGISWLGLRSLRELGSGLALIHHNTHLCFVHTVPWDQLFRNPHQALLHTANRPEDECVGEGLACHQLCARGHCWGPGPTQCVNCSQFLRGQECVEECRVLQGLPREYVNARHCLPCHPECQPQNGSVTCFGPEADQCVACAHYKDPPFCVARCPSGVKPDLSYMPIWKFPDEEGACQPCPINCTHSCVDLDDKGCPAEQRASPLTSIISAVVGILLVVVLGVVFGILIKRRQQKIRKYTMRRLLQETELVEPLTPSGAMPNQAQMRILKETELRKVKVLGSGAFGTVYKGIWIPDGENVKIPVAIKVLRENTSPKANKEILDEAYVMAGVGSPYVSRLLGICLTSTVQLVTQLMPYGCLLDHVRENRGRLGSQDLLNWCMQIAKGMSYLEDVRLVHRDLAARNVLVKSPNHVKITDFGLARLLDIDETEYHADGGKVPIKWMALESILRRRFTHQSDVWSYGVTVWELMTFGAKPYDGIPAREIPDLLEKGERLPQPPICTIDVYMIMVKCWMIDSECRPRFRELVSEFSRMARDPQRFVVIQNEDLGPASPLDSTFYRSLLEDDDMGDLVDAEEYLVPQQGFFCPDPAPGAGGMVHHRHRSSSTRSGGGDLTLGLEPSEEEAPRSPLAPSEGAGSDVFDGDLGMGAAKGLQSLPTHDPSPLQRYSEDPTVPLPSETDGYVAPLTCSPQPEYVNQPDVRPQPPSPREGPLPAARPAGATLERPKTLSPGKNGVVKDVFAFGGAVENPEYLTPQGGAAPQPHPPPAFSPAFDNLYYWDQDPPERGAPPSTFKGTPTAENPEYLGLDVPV

ITK = target: T3, ITK (Homo sapiens, UniProt Q08881); assay: scanMAX binding POC, ITK; conditions: 1 μM
T3 sequence (Q08881 1-620): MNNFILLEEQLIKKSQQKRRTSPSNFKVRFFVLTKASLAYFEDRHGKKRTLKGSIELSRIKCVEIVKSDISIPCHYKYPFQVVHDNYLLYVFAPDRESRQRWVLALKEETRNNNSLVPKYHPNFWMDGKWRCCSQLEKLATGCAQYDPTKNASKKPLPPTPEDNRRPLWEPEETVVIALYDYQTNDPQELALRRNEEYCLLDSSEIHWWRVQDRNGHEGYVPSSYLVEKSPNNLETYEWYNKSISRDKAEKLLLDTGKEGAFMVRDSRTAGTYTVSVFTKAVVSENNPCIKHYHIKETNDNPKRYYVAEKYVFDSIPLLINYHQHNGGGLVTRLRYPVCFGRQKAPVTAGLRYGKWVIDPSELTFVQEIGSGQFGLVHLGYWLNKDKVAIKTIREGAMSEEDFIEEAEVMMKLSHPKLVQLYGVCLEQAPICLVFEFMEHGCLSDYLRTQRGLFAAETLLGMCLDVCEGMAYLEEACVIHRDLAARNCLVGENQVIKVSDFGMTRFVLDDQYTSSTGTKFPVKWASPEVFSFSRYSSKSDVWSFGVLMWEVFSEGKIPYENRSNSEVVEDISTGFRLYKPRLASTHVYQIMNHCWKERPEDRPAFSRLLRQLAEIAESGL
Text: as §1, §2, §3, §4, §5, §6, §7, §8

patients with CLL = tested on: patients with CLL; design: method as in NCT02477696; conditions: phase III, P = 0.02, ref NCT02477696; cited from earlier work
ERBB4 = ERBB4 (Homo sapiens, UniProt Q15303); assay: scanMAX binding POC, ERBB4; conditions: 1 μM
Chain of ERBB4 (Q15303 26-1308): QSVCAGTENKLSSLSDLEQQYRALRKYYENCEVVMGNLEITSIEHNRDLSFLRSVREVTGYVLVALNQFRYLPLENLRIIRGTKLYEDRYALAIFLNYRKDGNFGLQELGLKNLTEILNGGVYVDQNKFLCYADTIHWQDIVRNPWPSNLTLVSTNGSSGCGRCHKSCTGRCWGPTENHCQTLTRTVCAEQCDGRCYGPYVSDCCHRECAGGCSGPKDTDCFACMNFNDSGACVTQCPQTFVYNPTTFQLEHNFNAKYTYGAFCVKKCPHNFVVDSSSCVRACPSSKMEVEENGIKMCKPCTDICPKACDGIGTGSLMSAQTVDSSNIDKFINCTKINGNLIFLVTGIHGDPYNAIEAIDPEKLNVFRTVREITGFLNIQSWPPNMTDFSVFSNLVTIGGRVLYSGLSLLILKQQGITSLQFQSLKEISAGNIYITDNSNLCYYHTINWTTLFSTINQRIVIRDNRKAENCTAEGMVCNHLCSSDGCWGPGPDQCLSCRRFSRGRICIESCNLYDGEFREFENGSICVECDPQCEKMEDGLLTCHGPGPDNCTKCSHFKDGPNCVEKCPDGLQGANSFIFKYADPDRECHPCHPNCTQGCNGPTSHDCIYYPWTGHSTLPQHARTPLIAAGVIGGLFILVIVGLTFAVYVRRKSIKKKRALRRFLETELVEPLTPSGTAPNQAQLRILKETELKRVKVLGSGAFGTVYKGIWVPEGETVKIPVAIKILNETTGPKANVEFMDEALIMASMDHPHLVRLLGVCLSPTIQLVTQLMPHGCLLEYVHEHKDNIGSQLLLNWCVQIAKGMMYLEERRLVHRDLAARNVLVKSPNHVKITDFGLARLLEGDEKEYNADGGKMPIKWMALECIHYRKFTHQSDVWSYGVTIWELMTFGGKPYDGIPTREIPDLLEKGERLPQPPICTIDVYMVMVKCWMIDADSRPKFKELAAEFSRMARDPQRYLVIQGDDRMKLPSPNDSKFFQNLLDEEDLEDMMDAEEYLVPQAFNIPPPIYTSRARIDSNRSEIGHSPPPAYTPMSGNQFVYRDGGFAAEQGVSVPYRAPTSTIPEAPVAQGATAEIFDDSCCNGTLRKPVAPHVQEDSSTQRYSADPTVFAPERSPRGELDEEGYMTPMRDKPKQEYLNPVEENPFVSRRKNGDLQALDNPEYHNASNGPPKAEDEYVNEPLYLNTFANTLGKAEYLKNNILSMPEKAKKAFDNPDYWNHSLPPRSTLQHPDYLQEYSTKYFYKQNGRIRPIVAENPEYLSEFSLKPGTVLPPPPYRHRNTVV

BTK [2] = conditions: cited from earlier work
BTK [3] = target: T4, BTK (Homo sapiens, UniProt Q06187); assay: scanMAX binding POC, BTK; conditions: 1 μM; zero POC = competition comparable to positive control
T4 construct: host or cells: transiently transfected HEK293 cells
Text: as §1, §2, §3, §4, §5, §6, §7, §8

EGFR = EGFR (Homo sapiens, UniProt P00533); assay: scanMAX binding POC, EGFR; conditions: 1 μM
Chain of EGFR (P00533 25-1210): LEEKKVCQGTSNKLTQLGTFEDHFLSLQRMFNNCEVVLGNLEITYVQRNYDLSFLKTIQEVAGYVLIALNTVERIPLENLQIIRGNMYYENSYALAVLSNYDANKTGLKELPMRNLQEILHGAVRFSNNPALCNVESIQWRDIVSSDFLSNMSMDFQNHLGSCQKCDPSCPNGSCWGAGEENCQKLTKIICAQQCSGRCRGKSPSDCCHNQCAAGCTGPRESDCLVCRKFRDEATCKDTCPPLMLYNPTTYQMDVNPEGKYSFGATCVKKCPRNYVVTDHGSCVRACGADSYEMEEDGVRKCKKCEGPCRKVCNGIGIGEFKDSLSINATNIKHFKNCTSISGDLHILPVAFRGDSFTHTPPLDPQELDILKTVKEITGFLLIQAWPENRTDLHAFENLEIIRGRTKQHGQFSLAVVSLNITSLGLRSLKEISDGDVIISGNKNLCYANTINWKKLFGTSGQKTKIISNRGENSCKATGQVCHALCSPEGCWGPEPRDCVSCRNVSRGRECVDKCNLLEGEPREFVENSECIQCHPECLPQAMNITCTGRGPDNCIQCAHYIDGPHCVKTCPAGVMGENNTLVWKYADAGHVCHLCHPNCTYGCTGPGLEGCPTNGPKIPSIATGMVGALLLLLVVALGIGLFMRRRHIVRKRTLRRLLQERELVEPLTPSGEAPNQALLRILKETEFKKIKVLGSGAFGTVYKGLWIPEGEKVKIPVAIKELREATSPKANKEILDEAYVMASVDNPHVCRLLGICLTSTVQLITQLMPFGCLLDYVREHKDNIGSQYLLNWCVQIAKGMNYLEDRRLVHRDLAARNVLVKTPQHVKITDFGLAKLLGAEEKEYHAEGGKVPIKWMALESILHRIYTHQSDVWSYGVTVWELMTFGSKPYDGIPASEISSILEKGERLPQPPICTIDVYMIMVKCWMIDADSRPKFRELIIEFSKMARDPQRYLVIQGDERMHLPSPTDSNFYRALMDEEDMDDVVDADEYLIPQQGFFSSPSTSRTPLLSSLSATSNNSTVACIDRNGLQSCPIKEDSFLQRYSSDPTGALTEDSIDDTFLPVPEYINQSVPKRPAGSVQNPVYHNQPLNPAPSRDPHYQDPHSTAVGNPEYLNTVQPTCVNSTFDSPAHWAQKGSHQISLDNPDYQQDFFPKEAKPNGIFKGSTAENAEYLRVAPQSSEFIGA

BLK = BLK (Homo sapiens, UniProt P51451); assay: scanMAX binding POC, BLK; conditions: 1 μM
Chain of BLK (P51451 whole entry): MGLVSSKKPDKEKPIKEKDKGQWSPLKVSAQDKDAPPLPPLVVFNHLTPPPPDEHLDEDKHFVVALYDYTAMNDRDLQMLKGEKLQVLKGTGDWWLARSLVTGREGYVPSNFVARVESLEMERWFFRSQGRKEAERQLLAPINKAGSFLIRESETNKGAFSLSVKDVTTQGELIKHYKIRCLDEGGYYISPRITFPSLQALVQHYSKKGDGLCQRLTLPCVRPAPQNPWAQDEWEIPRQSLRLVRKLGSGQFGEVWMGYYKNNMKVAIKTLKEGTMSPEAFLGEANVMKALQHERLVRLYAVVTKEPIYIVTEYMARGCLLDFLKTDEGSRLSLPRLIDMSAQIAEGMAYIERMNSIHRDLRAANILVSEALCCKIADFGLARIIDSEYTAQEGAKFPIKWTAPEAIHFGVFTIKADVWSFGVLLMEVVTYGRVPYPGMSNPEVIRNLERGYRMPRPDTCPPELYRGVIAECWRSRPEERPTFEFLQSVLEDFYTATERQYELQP

JNK1 (MAPK8) = JNK1 (MAPK8) (Homo sapiens, UniProt P45983); assay: scanMAX binding POC, JNK1; conditions: 1 μM
Chain of JNK1 (MAPK8) (P45983 whole entry): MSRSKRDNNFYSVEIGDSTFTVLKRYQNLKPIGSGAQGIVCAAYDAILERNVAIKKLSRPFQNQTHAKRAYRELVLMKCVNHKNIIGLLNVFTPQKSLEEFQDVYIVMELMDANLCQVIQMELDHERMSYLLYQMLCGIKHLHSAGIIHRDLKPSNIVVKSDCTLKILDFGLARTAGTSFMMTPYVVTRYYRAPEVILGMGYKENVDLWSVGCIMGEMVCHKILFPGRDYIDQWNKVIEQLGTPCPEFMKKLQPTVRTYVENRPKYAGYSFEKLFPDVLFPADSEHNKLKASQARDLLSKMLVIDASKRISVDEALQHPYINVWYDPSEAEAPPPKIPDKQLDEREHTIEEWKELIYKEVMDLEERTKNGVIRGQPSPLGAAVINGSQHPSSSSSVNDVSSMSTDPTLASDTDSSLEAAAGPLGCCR

JNK3 (MAPK10) = JNK3 (MAPK10) (Homo sapiens, UniProt P53779); assay: scanMAX binding POC, JNK3; conditions: 1 μM
MKK7 = target: T5, MKK7 (Homo sapiens, UniProt O14733); assay: scanMAX binding POC, MKK7; conditions: 1 μM
T5 sequence (O14733 1-419): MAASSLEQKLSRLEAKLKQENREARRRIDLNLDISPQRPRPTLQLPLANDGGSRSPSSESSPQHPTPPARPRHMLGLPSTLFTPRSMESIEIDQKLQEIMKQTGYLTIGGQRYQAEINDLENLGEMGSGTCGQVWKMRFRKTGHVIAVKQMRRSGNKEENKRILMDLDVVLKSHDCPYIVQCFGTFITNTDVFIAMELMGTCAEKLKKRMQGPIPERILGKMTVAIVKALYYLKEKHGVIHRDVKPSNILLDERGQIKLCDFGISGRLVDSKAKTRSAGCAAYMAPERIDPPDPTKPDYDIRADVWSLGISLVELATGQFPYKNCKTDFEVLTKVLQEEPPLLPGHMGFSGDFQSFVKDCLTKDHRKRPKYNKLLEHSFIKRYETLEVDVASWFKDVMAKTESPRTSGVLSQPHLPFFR

TEC = target: T6, TEC (Homo sapiens, UniProt P42680); assay: scanMAX binding POC, TEC; conditions: 1 μM
T6 sequence (P42680 1-631): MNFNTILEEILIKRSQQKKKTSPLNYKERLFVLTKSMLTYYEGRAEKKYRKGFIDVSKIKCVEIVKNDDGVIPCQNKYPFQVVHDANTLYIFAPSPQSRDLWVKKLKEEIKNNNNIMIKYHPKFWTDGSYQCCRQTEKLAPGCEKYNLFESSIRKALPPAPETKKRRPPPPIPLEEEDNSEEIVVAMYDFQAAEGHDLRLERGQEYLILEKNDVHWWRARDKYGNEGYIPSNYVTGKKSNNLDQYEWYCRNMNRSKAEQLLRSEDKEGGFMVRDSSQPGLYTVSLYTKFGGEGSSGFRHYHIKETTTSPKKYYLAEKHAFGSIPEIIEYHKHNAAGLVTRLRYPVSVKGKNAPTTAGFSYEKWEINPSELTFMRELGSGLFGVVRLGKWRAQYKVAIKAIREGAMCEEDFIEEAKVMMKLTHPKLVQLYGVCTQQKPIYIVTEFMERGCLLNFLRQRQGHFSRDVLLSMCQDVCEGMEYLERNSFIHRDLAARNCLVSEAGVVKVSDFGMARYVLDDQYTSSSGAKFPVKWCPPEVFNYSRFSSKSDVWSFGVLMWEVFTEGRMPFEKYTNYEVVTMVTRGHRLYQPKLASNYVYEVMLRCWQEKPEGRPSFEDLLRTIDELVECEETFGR
Text: as §1, §2, §3, §4, §5, §6, §7, §8

BTK C481S [4] = conditions: average of literature values; read-out: average published Kd for BTK C481S; cited from earlier work
BTK C481S [5] = conditions: read-out: average published IC50 for BTK C481S; cited from earlier work
[6] = tested on: R/R PCNSL lymphoma patients; conditions: three-year follow-up; cited from earlier work
[7] = tested on: relapsed/refractory (R/R) CLL and small lymphocytic lymphoma (SLL); design: method as in NCT03734016; conditions: cited from earlier work

Chain of JNK2 (MAPK9) (P45984 whole entry): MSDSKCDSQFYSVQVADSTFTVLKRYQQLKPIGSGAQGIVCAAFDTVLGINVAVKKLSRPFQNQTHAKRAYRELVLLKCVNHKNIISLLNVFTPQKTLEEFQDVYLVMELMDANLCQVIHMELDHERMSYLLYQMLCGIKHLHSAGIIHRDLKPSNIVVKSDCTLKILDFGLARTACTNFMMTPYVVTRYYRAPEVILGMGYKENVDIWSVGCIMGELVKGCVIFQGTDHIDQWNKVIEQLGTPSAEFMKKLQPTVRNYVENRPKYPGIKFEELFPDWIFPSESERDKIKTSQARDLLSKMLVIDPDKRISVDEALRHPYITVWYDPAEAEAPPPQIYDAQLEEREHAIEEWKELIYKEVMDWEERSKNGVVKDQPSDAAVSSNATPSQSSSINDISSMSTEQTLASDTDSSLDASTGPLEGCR

JAK3 binding POC [1] | ITK binding POC (ITK) | JNK3 (MAPK10) POC (JNK3 (MAPK10)) | Structure (SMILES) | JNK2 (MAPK9) POC (JNK2 (MAPK9)) | ERBB3 binding POC (ERBB3) | TXK binding POC (TXK) | ERBB2 binding POC (ERBB2) | ERBB4 binding POC (ERBB4) | IC50 (BTK [2]) [nM] | BTK binding POC (BTK [3]) | EGFR binding POC (EGFR) | BLK binding POC (BLK) | JNK1 (MAPK8) POC (JNK1 (MAPK8)) | MKK7 binding POC (MKK7) | TEC binding POC (TEC) | further results
80% of control | 100% of control | 97% of control | CC#CC(=O)N1CCC[C@H]1c1nc(-c2ccc(C(=O)Nc3ccccn3)cc2)c2c(N)nccn12 [Acalabrutinib] | 58% of control | 64% of control | 47% of control | 4.7% of control | 6.9% of control | […] | 0.2% of control | 61% of control | 57% of control | 93% of control | 75% of control | 14% of control | adverse cardiovascular events (patients with CLL): 9.4%; Kd (BTK C481S [4]): 358 nM
– | – | – | C=CC(=O)N1CCC[C@@H](n2nc(-c3ccc(Oc4ccccc4)cc3)c3c(N)ncnc32)C1 [Ibrutinib] | 78% of control | 0.15% of control | 0.5% of control | 0.1% of control | 0% of control | […] | – | 0% of control | 0.25% of control | 78% of control | 0.15% of control | 5.9% of control | IC50 (BTK C481S [5]): […]
20% of control | 74% of control | 93% of control | C=CC(=O)N1CCC([C@@H]2CCNc3c(C(N)=O)c(-c4ccc(Oc5ccccc5)cc4)nn32)CC1 [Zanubrutinib] | 95% of control | 23% of control | 2.2% of control | 7.3% of control | 0.75% of control | […] | – | 0% of control | 0.3% of control | 99% of control | 55% of control | 8.7% of control | overall response rate (ORR, partial and complete responses) ([7]; after 15 months, P < 0.001, ref NCT03734016): 78.3%; cardiovascular adverse events ([7]; two-sided P = 0.001, ref NCT03734016): 2.5%

Structure (SMILES) | JAK3 binding POC [1] | ITK binding POC (ITK) | JNK3 (MAPK10) POC (JNK3 (MAPK10)) | JNK2 (MAPK9) POC (JNK2 (MAPK9)) | ERBB3 binding POC (ERBB3) | TXK binding POC (TXK) | ERBB2 binding POC (ERBB2) | ERBB4 binding POC (ERBB4) | IC50 (BTK [2]) [nM] | BTK binding POC (BTK [3]) | EGFR binding POC (EGFR) | BLK binding POC (BLK) | JNK1 (MAPK8) POC (JNK1 (MAPK8)) | MKK7 binding POC (MKK7) | TEC binding POC (TEC) | further results
CC#CC(=O)N1CC[C@@H](n2c(=O)n(-c3ccc(Oc4ccccc4)cc3)c3c(N)ncnc32)C1 [Tirabrutinib] | – | – | […] | 92% of control | 12% of control | 14% of control | 26% of control | 85% of control | […] | 0.35% of control | 74% of control | 14% of control | 99% of control | 87% of control | 9.4% of control | overall response rate [6]: 63.6%
